Assays:
[1] = Flow rheometry test of PCL-PVAc-PEG/Vitamin E composites; format: physicochemical; conditions: flow mode, 20±1° C., shear stress 0.60 to 59.68 Pa
Protocol: Rheological Characterization. […] The viscoelastic properties of the composites were evaluated by measuring their shear rate under an applied shear stress. The viscous response, or the loss modulus, is the loss of the rigid structure of the system as a result of the applied stress over strain (G″). The recovery of the polymeric dispersions when lifting the applied stress is known as the elastic (G′) or storage modulus. Tangent of the phase angle (tan δ) is the ratio of the viscous property of the dispersion (G″) to its elastic property (G′). Tan δ is a measure of the relative contribution of the viscous component to the solid characteristics of the material. Materials behave increasingly like a liquid as the tan δ value increases above 1, whereas they behave increasingly like a gel as the tan δ value decreases below 1 [13].
The characterization of the rheological properties of vitamin E and PCL-PVAc-PEG/Vitamin E composites was carried out with an Advanced AR 2000 controlled stress/controlled rate rheometer (TA Instruments, New Castle, Del., USA) with a 2o, 40 mm cone-plate geometry and a 61 μm gap between the plates. Approximately 0.6 mL of each sample was carefully placed on the lower plate. […]
Flow Rheometry Test. The flow behavior and complex viscosity (η) of the PCL-PVAc-PEG/Vitamin E composites were measured in flow mode at 20±1° C. under an applied shear stress from 0.60 to 59.68 Pa. […]

[2] = Texture analysis of PCL-PVAc-PEG/Vitamin E composites (hardness, adhesiveness, cohesiveness); format: physicochemical; conditions: probe compression 2 mm/s to 4 mm depth, 20±1° C.
Protocol: Texture Analysis. Texture analysis is a technique that has been widely utilized for the mechanical characterization of food and pharmaceutical products. The mechanical characteristics of the PCL-PVAc-PEG/Vitamin E composites were determined by using a TA-XT plus texture analyzer (Texture Technologies Corp and Stable Micro Systems, Ltd, Scarsdale, N.Y., USA) equipped with a 50 kg load cell and fitted with a 35 mm flat-faced stainless-steel cylindrical probe. Briefly, 10 g sample of each composite was placed in a 25 mL jacketed reaction beaker. Before analysis, air bubbles were removed from the samples by maintaining the reaction beaker at 80° C. for approximately 30 minutes. Samples were then allowed to equilibrate to room temperature for 24 h. After equilibration, samples were tested for their texture properties by compressing the probe into the surface of each sample at a rate of 2 mm/s to a depth of 4 mm, after which the probe was retracted at a rate of 2 mm/s. Composite Hardness, adhesiveness, and cohesiveness were then estimated from the generated force-time plots. At least three replicate analyses were carried out for each composite using a freshly prepared sample. Data collection and calculation were determined by the Texture Exponent 6.1.7.0 software package.
Texture Analysis. Texture profile analysis (TPA) of the PCL-PVAc-PEG/Vitamin E composites was carried out to study their compressional flow properties. It provided valuable information about the impact of PCL-PVAc-PEG load on the hardness, adhesiveness, and cohesiveness of the composites (FIG. 9). These characteristics quantify sample deformation under compression. Hardness describes the stress/work required to remove the sample from the container and to subsequently apply it to the site of application. It is defined as the force required to acquire a given deformation which is the same as the maximum peak force during compression. Hardness should be low in order to allow the material to be easily removed from the container. […]

[3] = 24° C.; cited from earlier work

Viscosity [1]: 5.9 Pa·s
Adhesiveness [2]: 0.01 kg·s
Cohesiveness [2]: 0.02 kg·s
Hardness [2]: 0.021 kg
Compound: Cc1c(C)c2c(c(C)c1O)CCC(C)(CCCC(C)CCCC(C)CCCC(C)C)O2 (racemic) [pure vitamin E, DL-α-Tocopherol]
reported viscosity [3]: 2480 centipoise

— US20200354562A1, “FILMS AND COMPOSITES AND METHODS OF PRODUCTION AND USE” (Texas Tech University System, priority 2018, published 2020)
